According to patent US20150297605A1, “METHODS FOR TREATING CANCER USING TOR KINASE INHIBITOR COMBINATION THERAPY” (Signal Pharmaceuticals, LLC, priority 2014, published 2015):

Columns and labels:
Type in all cases: cell-based
[1] = system: 5637 (bladder cancer, romidepsin sensitive cell line); test: Anti-proliferation assay (CellTiter-Glo), Bliss independence model, 5637; details: combination treatment with Romidepsin, 5637 (S), 72 h, greater than 10% considered synergistic
Description: (§1) Anti-Proliferation Assay. […] Cells were thawed from a liquid nitrogen preserved state. Once cells were expanded and divided at their expected doubling times, screening began. Cells were seeded in their respective growth media in 96-well tissue culture treated plates at 2000 cells/well and placed in incubators at 37° C. the night before treatment. […] These T zero (T0) plates were read using luminescence on Spectramax Plate Readers. Treated assay plates were incubated with Compound for seventy-two hours. After seventy-two hours, plates were developed for endpoint analysis using CellTiter-Glo. The calculation for synergy score is provided below.
(§2) Growth Inhibition (GI) was used as a measure of cell viability. The cell viability of vehicle was measured at the time of dosing (T0) and after seventy-two hours (T72). A GI reading of 0% represents no growth inhibition—cells treated with compound and T72 vehicle signals are matched. A GI 100% represents complete growth inhibition—cells treated by compound and T0 vehicle signals are matched. […] A GI 200% represents complete death of all cells in the culture well. […] GI is calculated by applying the following test and equation: […]
(§3) We next compared the expected compound effect to the observed compound effect, and calculated the differences between the observed and the expected cell viability, expressed as % of control. […]

[2] = system: SKOV3 (ovarian cancer, romidepsin resistant cell line); test: Anti-proliferation assay (CellTiter-Glo), Bliss independence model, SKOV3; details: combination treatment with Romidepsin, SKOV3 (R), 72 h, greater than 10% considered synergistic
Description: as §1, §2, §3

[3] = system: BT-474 breast cancer cell line; test: Anti-proliferation assay, synergy score, BT-474; details: in combination with Compound 1, 72 h, mean self cross score + 2σ 3.37
Description: (§4) Anti-Proliferation Assay. Cells were thawed from a liquid nitrogen preserved state. Once cells expanded and divided at their expected doubling times, screening began.
(§5) Cells were equilibrated in assay plates via centrifugation and placed in incubators attached to the Dosing Modules at 37° C. for twenty-four hours before treatment. […] These T zero (T0) plates were read using ultra-sensitive luminescence on Envision Plate Readers. Treated assay plates were incubated with compound (single compound or combination) for seventy-two hours. After seventy-two hours, platesweare developed for endpoint analysis using ATPLite. […] The calculation for synergy score is provided below.
(§6) Growth Inhibition (GI) was used as a measure of cell viability. The cell viability of vehicle was measured at the time of dosing (T0) and after seventy-two hours (T72). […] A GI 200% represents complete death of all cells in the culture well. Compounds reaching an activity plateau of GI 200% are considered cytotoxic. GI is calculated by applying the following test and equation: […]
(§7) where T is the signal measure for a test article, V is the vehicle-treated control measure, and V0 is the vehicle control measure at time zero. This formula is derived from the Growth Inhibition calculation used in the National Cancer Institute's NCI-60 high throughput screen.
(§8) Synergy Score Analysis. Synergy scores were determined using the Chalice Software (Zalicus Inc., Cambridge Mass.). […] The Synergy Score is calculated as: […]
(§9) The fractional inhibition for each component agent and combination point in the matrix was calculated relative to the median of all vehicle-treated control wells. […]
(§10) In order to objectively establish hit criteria for the combination screen analysis, twenty compounds were selected to be self-crossed across the seventeen cell line panel as a means to empirically determine a baseline additive, non-synergistic response. The identity of the twenty self-cross compounds was determined by selecting compounds with a variety of maximum response values and single agent dose response steepness.

[4] = system: BT-549 breast cancer cell line; test: Anti-proliferation assay, synergy score, BT-549; details: in combination with Compound 1, 72 h, mean self cross score + 2σ 3.94
Description: as §4, §5, §6, §7, §8, §9, §10

[5] = system: HCC-1187 breast cancer cell line; test: Anti-proliferation assay, synergy score, HCC-1187; details: in combination with Compound 1, 72 h, mean self cross score + 2σ 4.80
Description: as §4, §5, §6, §7, §8, §9, §10

[6] = system: BT-20 breast cancer cell line; test: Anti-proliferation assay, synergy score, BT-20; details: in combination with Compound 1, 72 h, mean self cross score + 2σ 3.23
Description: as §4, §5, §6, §7, §8, §9, §10

[7] = system: HCC-1500 breast cancer cell line; test: Anti-proliferation assay, synergy score, HCC-1500; details: in combination with Compound 1, 72 h, mean self cross score + 2σ 4.17
Description: as §4, §5, §6, §7, §8, §9, §10

[8] = system: HCC-1806 breast cancer cell line; test: Anti-proliferation assay, synergy score, HCC-1806; details: in combination with Compound 1, 72 h, mean self cross score + 2σ 5.05
Description: as §4, §5, §6, §7, §8, §9, §10

[9] = system: MDA-MB-175-VII breast cancer cell line; test: Anti-proliferation assay, synergy score, MDA-MB-175-VII; details: in combination with Compound 1, 72 h, mean self cross score + 2σ 2.82
Description: as §4, §5, §6, §8, §9

[10] = system: HCC-1428 breast cancer cell line; test: Anti-proliferation assay, synergy score, HCC-1428; details: in combination with Compound 1, 72 h, mean self cross score + 2σ 3.22
Description: as §4, §5, §6, §7, §8, §9, §10

[11] = system: MDA-MB-453 breast cancer cell line; test: Anti-proliferation assay, synergy score, MDA-MB-453; details: in combination with Compound 1, 72 h, mean self cross score + 2σ 2.99
Description: as §4, §5, §6, §7, §8, §9, §10

[12] = system: HCC-1937 breast cancer cell line; test: Anti-proliferation assay, synergy score, HCC-1937; details: in combination with Compound 1, 72 h, mean self cross score + 2σ 2.89
Description: as §4, §5, §6, §7, §8, §9, §10

[13] = system: 5637 and SKOV3 cancer cell lines; test: Anti-proliferation assay (CellTiter-Glo), Bliss independence model, overall conclusion; details: combination with romidepsin
Description: as §1, §2, §3

| SMILES | differences between observed and expected cell viability (% of control) [1] | differences between observed and expected cell viability (% of control) [2] | Synergy Score [3] | Synergy Score [4] | Synergy Score [5] | Synergy Score [6] | Synergy Score [7] | Synergy Score [8] | Synergy Score [9] | Synergy Score [10] | Synergy Score [11] | Synergy Score [12] | combination effect (conclusion in words) [13] |
| --- | --- | --- | --- | --- | --- | --- | --- | --- | --- | --- | --- | --- | --- |
| CCN1C(=O)CNc2ncc(-c3ccc(-c4nc[nH]n4)nc3C)nc21 [Compound 1, 1-ethyl-7-(2-methyl-6-(1H-1,2,4-triazol-3-yl)pyridin-3-yl)-3,4-dihydropyrazino[2,3-b]pyrazin-2(1H)-one] | 16% | 23% | – | – | – | – | – | – | – | – | – | – | – |
| O=C(/C=C/c1cccc(S(=O)(=O)Nc2ccccc2)c1)NO [Belinostat] | – | – | 6.88 | 9.09 | 4.60 | 9.26 | 4.58 | 11.40 | 3.21 | 7.23 | 14.80 | 14.50 | – |
| Nc1ccccc1NC(=O)c1ccc(CNC(=O)OCc2cccnc2)cc1 [MS-275] | – | – | 7.79 | 11.80 | 7.64 | 5.84 | 2.18 | 10.00 | 6.71 | 1.65 | 14.60 | 9.75 | – |
| C/C=C1\NC(=O)[C@H]2CSSCC/C=C/[C@H](CC(=O)N[C@H](C(C)C)C(=O)N2)OC(=O)[C@H](C(C)C)NC1=O [Romidepsin, (1S,4S,7Z,10S,16E,21R)-7-ethylidene-4,21-bis(1-methylethyl)-2-oxa-12,13-dithia-5,8,20,23-tetrazabicyclo[8.7.6]tricos-16-ene-3,6,9,19,22-pentone] | – | – | 6.00 | 12.00 | 6.10 | 8.00 | 4.80 | 8.39 | – | 4.80 | 13.80 | 12.50 | – |
| CO[C@H]1CC[C@H](N2C(=O)CNc3ncc(-c4ccc(C(C)(C)O)nc4)nc32)CC1 [Compound 2, 7-(6-(2-hydroxypropan-2-yl)pyridin-3-yl)-1-((1r,4r)-4-methoxycyclohexyl)-3,4-dihydropyrazino-[2,3-b]pyrazin-2(1H)-one] | 19% | 27% | – | – | – | – | – | – | – | – | – | – | synergism was observed |
